Reference: the supplement of paper PMC10307832

What was measured:
Test in all cases: relative viability (nuclei count vs DMSO), 5 days (fraction); higher = more cells survive
[1] = compound: O[C@H]1CC[C@H](Nc2ncc3nc(Nc4c(F)cc(F)cc4F)n([C@H]4CCOC4)c3n2)CC1 [Tanzisertib] + CC(=O)c1c(C)c2cnc(Nc3ccc(N4CCNCC4)cn3)nc2n(C2CCCC2)c1=O [Palbociclib] (partner 0.5 µM)
Outline: (§1)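 Five library-drug doses in √10 steps were combined with a fixed anchor-drug dose, or a single drug was given alone, by pin tool to lung cancer cell lines in 1536-well plates the day after seeding. Nuclei were stained and counted after 5 days. Relative viability is the nuclei count in treated wells over that in vehicle wells, taken as the median of duplicate plates.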

Tanzisertib + Pictilisib = compound: O[C@H]1CC[C@H](Nc2ncc3nc(Nc4c(F)cc(F)cc4F)n([C@H]4CCOC4)c3n2)CC1 [Tanzisertib] + CS(=O)(=O)N1CCN(Cc2cc3nc(-c4cccc5[nH]ncc45)nc(N4CCOCC4)c3s2)CC1 [Pictilisib] (partner 1 µM)
Outline: as §1

Tanzisertib + Foretinib = compound: O[C@H]1CC[C@H](Nc2ncc3nc(Nc4c(F)cc(F)cc4F)n([C@H]4CCOC4)c3n2)CC1 [Tanzisertib] + COc1cc2c(Oc3ccc(NC(=O)C4(C(=O)Nc5ccc(F)cc5)CC4)cc3F)ccnc2cc1OCCCN1CCOCC1 [Foretinib] (partner 0.25 µM)
Outline: as §1

[2] = compound: C[C@@H](N)c1ccc(C(=O)Nc2ccnc3[nH]ccc23)cc1 + COc1cccc2cc(-c3nc([C@H]4CC[C@H](C(=O)O)CC4)n4ncnc(N)c34)[nH]c12 [OSI-027] (partner 0.5 µM)
Outline: as §1

Cell Line | relative viability ([1]; first compound 0.08 µM) | relative viability ([1]; first compound 0.253 µM) | relative viability ([1]; first compound 0.8 µM) | relative viability ([1]; first compound 2.53 µM) | relative viability ([1]; first compound 8 µM) | relative viability (Tanzisertib + Pictilisib; first compound 0.08 µM) | relative viability (Tanzisertib + Pictilisib; first compound 0.253 µM) | relative viability (Tanzisertib + Pictilisib; first compound 0.8 µM) | relative viability (Tanzisertib + Pictilisib; first compound 2.53 µM) | relative viability (Tanzisertib + Pictilisib; first compound 8 µM) | relative viability (Tanzisertib + Foretinib; first compound 0.08 µM) | relative viability (Tanzisertib + Foretinib; first compound 0.253 µM) | relative viability (Tanzisertib + Foretinib; first compound 0.8 µM) | relative viability (Tanzisertib + Foretinib; first compound 2.53 µM) | relative viability (Tanzisertib + Foretinib; first compound 8 µM) | relative viability ([2]; first compound 0.04 µM) | relative viability ([2]; first compound 0.1265 µM) | relative viability ([2]; first compound 0.4 µM) | relative viability ([2]; first compound 1.265 µM) | relative viability ([2]; first compound 4 µM)
201T | 0.369 | 0.375 | 0.35 | 0.342 | 0.334 | 0.748 | 0.676 | 0.684 | 0.687 | 0.649 | 1.2 | 1.08 | 1.12 | 1.11 | 0.978 | 0.844 | 0.835 | 0.961 | 1.01 | 0.856
A549 | – | – | – | – | – | 0.564 | 0.496 | 0.588 | 0.534 | 0.428 | 0.98 | 0.951 | 0.97 | 0.87 | 0.839 | – | – | – | – | –
A-427 | 0.565 | 0.538 | 0.52 | 0.507 | 0.511 | 0.822 | 0.728 | 0.704 | 0.683 | 0.606 | 1.18 | 1.05 | 1.02 | 0.939 | 1.04 | 0.407 | 0.392 | 0.509 | – | 0.466
ABC-1 | 0.927 | 0.597 | 0.946 | 0.818 | 0.824 | 0.906 | 0.837 | 0.686 | 0.764 | 0.785 | 0.91 | 1.14 | 0.909 | 0.876 | 0.706 | 0.502 | 0.603 | 0.559 | – | 0.511
BEN | 0.448 | 0.532 | 0.502 | 0.492 | 0.509 | 0.577 | 0.555 | 0.612 | 0.561 | 0.48 | 0.619 | 0.75 | 0.679 | 0.766 | 0.828 | 0.293 | 0.307 | 0.3 | 0.314 | 0.284
CAL-12T | 0.486 | 0.447 | 0.539 | 0.422 | 0.279 | 0.416 | 0.468 | 0.438 | 0.485 | 0.353 | 1.11 | 1.13 | 1.05 | 1.25 | 1.07 | 1.19 | 0.784 | 0.928 | 0.3 | 0.78
COR-L23 | 0.325 | 0.331 | 0.336 | 0.275 | 0.298 | 0.922 | 0.736 | 0.781 | 0.97 | 0.869 | 1.01 | 0.966 | 1 | 1.13 | 1 | 0.775 | 0.838 | 0.755 | 0.748 | 0.669
COR-L 105 | 0.411 | 0.4 | 0.407 | 0.417 | 0.39 | 0.428 | 0.387 | 0.404 | 0.442 | 0.263 | 0.99 | 1.03 | 1.32 | 1.27 | 0.719 | 0.719 | 0.943 | 0.852 | 0.517 | 0.563
Calu-6 | – | – | – | – | – | 0.901 | 1.01 | 0.865 | 1.03 | 0.976 | 0.955 | 0.951 | 0.799 | 0.841 | 0.789 | – | – | – | – | –
ChaGo-K-1 | 0.977 | 0.927 | 0.91 | 0.889 | 0.903 | 0.657 | 0.819 | 0.845 | 0.627 | 0.482 | 0.969 | 0.982 | 0.861 | 0.94 | 0.891 | 0.496 | 0.487 | 0.487 | 0.297 | 0.564
EBC-1 | – | – | – | – | – | 0.468 | 0.454 | 0.405 | 0.338 | 0.275 | 0.102 | 0.093 | 0.104 | 0.117 | 0.109 | – | – | – | – | –
EKVX | 0.455 | 0.388 | 0.363 | 0.414 | 0.355 | 0.425 | 0.392 | 0.405 | 0.42 | 0.329 | 1.08 | 0.681 | 0.759 | 0.872 | 0.497 | 0.609 | 0.798 | 0.832 | 0.761 | 0.727
EMC-BAC-2 | 0.537 | 0.513 | 0.463 | 0.509 | 0.495 | 0.606 | 0.534 | 0.57 | 0.528 | 0.419 | 1.04 | 0.937 | 0.988 | 0.969 | 0.966 | 0.294 | 0.399 | 0.299 | 0.346 | 0.279
EPLC-272H | 0.374 | 0.316 | 0.326 | 0.306 | 0.287 | 0.396 | 0.328 | 0.397 | 0.337 | 0.199 | 0.737 | 0.692 | 0.714 | 0.65 | 0.666 | 0.285 | 0.308 | 0.308 | 0.244 | 0.293
H3255 | 0.297 | 0.301 | 0.327 | 0.336 | 0.31 | 0.548 | 0.452 | 0.487 | 0.457 | 0.253 | 0.729 | 0.77 | 0.831 | 0.841 | 0.696 | 0.624 | 0.727 | 0.745 | 0.725 | 0.783
HARA | 0.247 | 0.313 | 0.257 | 0.193 | 0.267 | 0.475 | 0.337 | 0.321 | 0.436 | 0.412 | 0.817 | 0.925 | 0.86 | 0.889 | 0.74 | – | 0.437 | 0.638 | – | 0.481
HCC-15 | 0.794 | 0.73 | 0.737 | 0.752 | 0.713 | 0.836 | 0.651 | 0.786 | 0.698 | 0.494 | 1.13 | 1.05 | 1.11 | 1.02 | 1.08 | 0.695 | 0.632 | 0.681 | – | 0.619
HCC-44 | 1.02 | 1.03 | 0.94 | 0.955 | 1.1 | 0.638 | 0.701 | 0.565 | 0.442 | 0.569 | – | – | – | – | – | 0.37 | 0.433 | 0.644 | 0.19 | 0.482
